This test deals with C57BL/6 male mice. In words: In vivo delivery study of lipid nucleic acid mixture (oral gavage, RT-qPCR of PGY-sRNA-26 in tissues). The conditions noted are these: for overall delivery efficacy: delivering nucleic acids into each tissue and blood tested: 100 μg lipid:10 nmol PGY-sRNA-26, all tissues and blood tested; for oral delivery of single-stranded sRNA nucleic acids into mouse blood / oral delivery of single-stranded sRNA nucleic acids into mouse brain tissue / oral delivery of single-stranded sRNA nucleic acids into mouse femur / oral delivery of single-stranded sRNA nucleic acids into mouse heart tissue / oral delivery of single-stranded sRNA nucleic acids into mouse intestinal tissue / oral delivery of single-stranded sRNA nucleic acids into mouse kidney tissue / oral delivery of single-stranded sRNA nucleic acids into mouse liver tissue / oral delivery of single-stranded sRNA nucleic acids into mouse lung tissue / oral delivery of single-stranded sRNA nucleic acids into mouse spleen tissue / oral delivery of single-stranded sRNA nucleic acids into mouse stomach tissue: 100 μg lipid:10 nmol PGY-sRNA-26, sampled after 12 hours; for oral delivery of single-stranded sRNA nucleic acids into mouse heart tissue: vs free uptake group; for oral delivery of single-stranded sRNA nucleic acids into mouse intestinal tissue: intestine. More on the design: species or system mouse. As to the method: 10 nmol of small RNA (as shown in Table 2) was dissolved in 400 μl of DEPC-treated water in a glass tube, 10 μl of the corresponding lipid stock solution was added such that the lipid mass in the system was 100 μg. The mixture was mixed thoroughly, heated in a 90° C. water bath for 15 minutes, and then cooled naturally to obtain the lipid nucleic acid mixture of lipid and small RNA.
C57BL/6 male mice, approximately 6 weeks old, weighing […], were obtained from Beijing Vital River Laboratory Animal Technology Co., Ltd. The mice were housed in the SPF-grade animal facility at the Animal Center of the Institute of Basic Medical Sciences, Chinese Academy of Medical Sciences. The mice were fasted for 12 hours before gavage administration.
The lipid nucleic acid mixture was prepared following the method described in Example 2. The resultant lipid nucleic acid mixture was orally administered to each mouse at a dose of 100 μg lipid:10 nmol single-stranded 3-methylated small RNA PGY-sRNA-26.
• 1) Blank group (n=4): mice were administered with 500 μl saline by gavage, this group served as a blank control; • 2) Free uptake group (n=4): mice were directly administered with small RNA PGY-sRNA-26 solution (10 nmol/mouse, 500 l) by gavage, this group served as a negative control; • 3) Lipid-treated group (n=4): mice were administered with 500 μl lipid nucleic acid mixture prepared in step 2 by gavage.
After 12 hours of gavage administration, 500 μl blood from the eyeball of each mouse was sampled, added to 1.5 ml Trizol Reagent LS (purchased from Invitrogen), thoroughly mixed for lysis. 3 ml of Trizol Reagent LSwas added to tissue samples and homogenized for complete lysis, wherein the sampled tissues include heart, liver, spleen, lung, kidney, stomach, intestine, brain, blood, femur, pancreas. RNAwas extracted from 1 ml of the blood or the tissue lysate following the steps below: • Centrifuge at 4° C., 12,000 rpm for 5 min, discard the precipitate, transfer Trizol to a new centrifuge tube; • Add chloroform at 200 μL chloroform/mL Trizol, shake well, stand at room temperature for 5 min; • Centrifuge at 4° C., 12,000 rpm for 15 min; • Take the upper aqueous phase to another centrifuge tube, add isopropanol at 0.4 mL isopropanol/mL Trizol, mix well, and stand at low temperature for 10-20 min; • Centrifuge at 4° C., 12,000 rpm for 15 min, discard the supernatant, RNA precipitated at the bottom of the tube; • Add 1 mL of 75% ethanol, gently shake the centrifuge tube, suspend the precipitate; • Centrifuge at 4° C., 12,000 rpm for 15 min, discard the supernatant, add 1 mL of 75% ethanol, gently shake the centrifuge tube, suspend the precipitate; • Centrifuge at 4° C., 12,000 rpm for 15 min, discard the supernatant, air-dry at room temperature, dissolve RNA samples in 50 μL RNase-free H2O, measure OD value to quantify RNA concentration. 3.3 Reverse Transcription of sRNA to cDNA:
sRNA was reverse transcribed to cDNA using the High-Capacity cDNA Reverse Transcription Kit (Applied Biosystems, cat. no. 4368813) by stem-loop method (see, e.g., “Real-time quantification of microRNAs by stem-loop RT-PCR, Nucleic Acids Res. 2005 Nov. 27; 33(20):e179”, incorporated herein by reference). The reverse transcription system is as follows: Template RNA (200 ng/μL) 10 μL, 10×RT Buffer 2.0 μL, 25×dNTP Mix (100 mM) 0.8 μL, U6 RT stem-loop primer (10 μM) 2.0 μL, PGY-sRNA-26 RT stem-loop primer (10 μM) 2.0 μL, MultiScribe™ Reverse Transcriptase (50 U/μL) 1.0 μL, RNAse Inhibitor (40 U/μL) 1.0 μL, nuclease-free H2O 1.2 μL. After transient centrifugation, the reverse transcription system was placed in a PCR machine with the following reaction conditions: (1) 25° C., 10 min; (2) 37° C., 120 min; (3) 85° C., 5 min; (4) 4° C., stop reaction. After the reaction, add 20 μL RNAse-free ddH2O, adjust the final volume to 40 μL. […]
In general terms: In qPCR the cycle at which signal appears reflects the starting amount.

Experimental findings from patent US20250073255A1, “USE OF FA-TYPE LIPID COMPOUNDS IN PREPARATION OF NUCLEIC ACID DELIVERY REAGENT AND RELATED PRODUCT” (BEIJING BAISHIKANG PHARMACEUTICAL TECHNOLOGY (BSJPHARMA) …, priority 2021, published 2025) are described below.

Each structure is given as a SMILES string.

Take `CC/C=C\CC1C(=O)CCC1CC(=O)O` (stereo not drawn) [Lipid 527]: the “overall delivery efficacy: delivering nucleic acids into each tissue and blood tested” value (shortened to “overall delivery efficacy”) was “best delivery efficacy”; the “oral delivery of single-stranded sRNA nucleic acids into mouse blood” value is given as “can effectively orally deliver”; the “oral delivery of single-stranded sRNA nucleic acids into mouse brain tissue” value is on record as “can effectively orally deliver”; the “oral delivery of single-stranded sRNA nucleic acids into mouse femur” value was “can effectively orally deliver”. Besides, the “oral delivery of single-stranded sRNA nucleic acids into mouse heart tissue” value is reported as “can effectively orally deliver”, the “oral delivery of single-stranded sRNA nucleic acids into mouse intestinal tissue” value is “can effectively orally deliver”, the “oral delivery of single-stranded sRNA nucleic acids into mouse kidney tissue” value is recorded as “can effectively orally deliver” and the “oral delivery of single-stranded sRNA nucleic acids into mouse liver tissue” value was “can effectively orally deliver”. Also, the “oral delivery of single-stranded sRNA nucleic acids into mouse lung tissue” value is given as “can effectively orally deliver”, the “oral delivery of single-stranded sRNA nucleic acids into mouse spleen tissue” value is “can effectively orally deliver” and the “oral delivery of single-stranded sRNA nucleic acids into mouse stomach tissue” value was “can effectively orally deliver”.
For the compound `CCCCCCCC(C)C` [Lipid 528, 2-methylnonane], the “overall delivery efficacy” value is “best delivery efficacy”; the “oral delivery of single-stranded sRNA nucleic acids into mouse blood” value is given as “can effectively orally deliver”; the “oral delivery of single-stranded sRNA nucleic acids into mouse brain tissue” value was “can effectively orally deliver”; the “oral delivery of single-stranded sRNA nucleic acids into mouse femur” value was “can effectively orally deliver”. Also, the “oral delivery of single-stranded sRNA nucleic acids into mouse heart tissue” value is given as “can effectively orally deliver”, the “oral delivery of single-stranded sRNA nucleic acids into mouse intestinal tissue” value was “can effectively orally deliver”, the “oral delivery of single-stranded sRNA nucleic acids into mouse kidney tissue” value is given as “can effectively orally deliver” and the “oral delivery of single-stranded sRNA nucleic acids into mouse liver tissue” value is on record as “can effectively orally deliver”. In addition, the “oral delivery of single-stranded sRNA nucleic acids into mouse lung tissue” value is on record as “can effectively orally deliver”, the “oral delivery of single-stranded sRNA nucleic acids into mouse spleen tissue” value is given as “can effectively orally deliver” and the “oral delivery of single-stranded sRNA nucleic acids into mouse stomach tissue” value was “can effectively orally deliver”.
`O=C(O)CCCCCCCCCCCCCCC(=O)O` [Lipid 529, hexadecanedioic acid]: the “overall delivery efficacy” value is on record as “best delivery efficacy”; the “oral delivery of single-stranded sRNA nucleic acids into mouse blood” value is given as “can effectively orally deliver”; the “oral delivery of single-stranded sRNA nucleic acids into mouse brain tissue” value is reported as “can effectively orally deliver”; the “oral delivery of single-stranded sRNA nucleic acids into mouse femur” value was “can effectively orally deliver”. Further, the “oral delivery of single-stranded sRNA nucleic acids into mouse heart tissue” value is on record as “can effectively orally deliver”, the “oral delivery of single-stranded sRNA nucleic acids into mouse intestinal tissue” value was “can effectively orally deliver”, the “oral delivery of single-stranded sRNA nucleic acids into mouse kidney tissue” value is reported as “can effectively orally deliver” and the “oral delivery of single-stranded sRNA nucleic acids into mouse liver tissue” value was “can effectively orally deliver”. In addition, the “oral delivery of single-stranded sRNA nucleic acids into mouse lung tissue” value is listed as “can effectively orally deliver”, the “oral delivery of single-stranded sRNA nucleic acids into mouse spleen tissue” value is recorded as “can effectively orally deliver” and the “oral delivery of single-stranded sRNA nucleic acids into mouse stomach tissue” value is listed as “can effectively orally deliver”.
In the case of `NC(CCCC(=O)O)C(=O)O` (stereo not drawn) [Lipid 530, 2-aminohexanedioic acid], the “overall delivery efficacy” value is “best delivery efficacy”; the “oral delivery of single-stranded sRNA nucleic acids into mouse blood” value is reported as “can effectively orally deliver”; the “oral delivery of single-stranded sRNA nucleic acids into mouse brain tissue” value is reported as “can effectively orally deliver”; the “oral delivery of single-stranded sRNA nucleic acids into mouse femur” value is on record as “can effectively orally deliver”. For the same compound, the “oral delivery of single-stranded sRNA nucleic acids into mouse heart tissue” value is “can effectively orally deliver”, the “oral delivery of single-stranded sRNA nucleic acids into mouse intestinal tissue” value is given as “can effectively orally deliver”, the “oral delivery of single-stranded sRNA nucleic acids into mouse kidney tissue” value was “can effectively orally deliver” and the “oral delivery of single-stranded sRNA nucleic acids into mouse liver tissue” value was “can effectively orally deliver”. In addition, the “oral delivery of single-stranded sRNA nucleic acids into mouse lung tissue” value is given as “can effectively orally deliver”, the “oral delivery of single-stranded sRNA nucleic acids into mouse spleen tissue” value is on record as “can effectively orally deliver” and the “oral delivery of single-stranded sRNA nucleic acids into mouse stomach tissue” value is reported as “can effectively orally deliver”.
`COc1cc(CNC(=O)CCCC/C=C/C(C)C)ccc1O` [Lipid 537]: the “overall delivery efficacy” value is “best delivery efficacy”; the “oral delivery of single-stranded sRNA nucleic acids into mouse blood” value is “can effectively orally deliver”; the “oral delivery of single-stranded sRNA nucleic acids into mouse brain tissue” value was “can effectively orally deliver”; the “oral delivery of single-stranded sRNA nucleic acids into mouse femur” value is “can effectively orally deliver”. Besides, the “oral delivery of single-stranded sRNA nucleic acids into mouse heart tissue” value is “can effectively orally deliver”, the “oral delivery of single-stranded sRNA nucleic acids into mouse intestinal tissue” value was “can effectively orally deliver”, the “oral delivery of single-stranded sRNA nucleic acids into mouse kidney tissue” value is “can effectively orally deliver” and the “oral delivery of single-stranded sRNA nucleic acids into mouse liver tissue” value is “can effectively orally deliver”. The “oral delivery of single-stranded sRNA nucleic acids into mouse lung tissue” value is listed as “can effectively orally deliver”, the “oral delivery of single-stranded sRNA nucleic acids into mouse spleen tissue” value is listed as “can effectively orally deliver” and the “oral delivery of single-stranded sRNA nucleic acids into mouse stomach tissue” value is reported as “can effectively orally deliver”.
As for `CCCCC/C=C\C/C=C\C/C=C\C/C=C\C/C=C\CCC(=O)O` [Lipid 542, (4Z,7Z,10Z,13Z,16Z)-docosa-4,7,10,13,16-pentaenoic acid], the “overall delivery efficacy” value is given as “best delivery efficacy”; the “oral delivery of single-stranded sRNA nucleic acids into mouse blood” value was “can effectively orally deliver”; the “oral delivery of single-stranded sRNA nucleic acids into mouse brain tissue” value is recorded as “can effectively orally deliver”; the “oral delivery of single-stranded sRNA nucleic acids into mouse femur” value was “can effectively orally deliver”. The “oral delivery of single-stranded sRNA nucleic acids into mouse heart tissue” value was “can effectively orally deliver”, the “oral delivery of single-stranded sRNA nucleic acids into mouse intestinal tissue” value was “can effectively orally deliver”, the “oral delivery of single-stranded sRNA nucleic acids into mouse kidney tissue” value is “can effectively orally deliver” and the “oral delivery of single-stranded sRNA nucleic acids into mouse liver tissue” value was “can effectively orally deliver”. The “oral delivery of single-stranded sRNA nucleic acids into mouse lung tissue” value is given as “can effectively orally deliver”, the “oral delivery of single-stranded sRNA nucleic acids into mouse spleen tissue” value is on record as “can effectively orally deliver” and the “oral delivery of single-stranded sRNA nucleic acids into mouse stomach tissue” value was “can effectively orally deliver”.
